Test results published in PubChem BioAssay AID330 (DTP/NCI, 2004).
“And” between values parts separate entries of the source, which are not always exact repeats. Equal entries are not always repeated. Toxic doses and inconclusive results are not listed. Rule for the calls: active = survival T/C of 150% or more; inactive = T/C below 125% in these data.

Test system: P388 leukemia ip, CD2F1 mice, survival T/C
Assay: NCI In Vivo Anticancer Drug Screen. Data for tumor model P388 Leukemia (intraperitoneal) in CD2F1 (CDF1) mice
Settings: endpoint: median survival time, higher = longer survival
Procedure, shortened: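 Mice carrying the transplanted tumor received test compound or vehicle. Survival was recorded in each group, and the value is the treated-group measurement divided by that of the vehicle-treated control group.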

[1] = dose: 100.0 mg/kg/injection, schedule: Q04DX003 (ip), vehicle: saline
[2] = dose: 200.0 mg/kg/injection, schedule: Q04DX003 (ip), vehicle: saline
[3] = dose: 6.25 mg/kg/injection, schedule: Q01DX009 (ip), vehicle: saline with Tween-80
[4] = dose: 12.5 mg/kg/injection, schedule: Q01DX009 (ip), vehicle: saline with Tween-80
[5] = dose: 25.0 mg/kg/injection, schedule: Q01DX009 (ip), vehicle: saline with Tween-80
[6] = dose: 50.0 mg/kg/injection, schedule: Q01DX009 (ip), vehicle: saline with Tween-80
[7] = dose: 100.0 mg/kg/injection, schedule: Q01DX009 (ip), vehicle: saline with Tween-80
[8] = dose: 60.0 mg/kg/injection, schedule: Q01DX005 (ip), vehicle: saline with Tween-80
[9] = dose: 120.0 mg/kg/injection, schedule: Q01DX005 (ip), vehicle: saline with Tween-80
[10] = dose: 400.0 mg/kg/injection, schedule: Q01DX009 (ip), vehicle: saline with Tween-80
[11] = dose: 200.0 mg/kg/injection, schedule: Q04DX003 (ip), vehicle: Klucel (hydroxypropylcellulose) (HPC)
[12] = dose: 50.0 mg/kg/injection, schedule: Q01DX005 (ip), vehicle: saline with Tween-80

Measured: T/C

COc1ccc(S(=O)(=O)N/N=C/C(=O)OCOC(=O)C(C)(C)C)cc1
inactive: dose: 5.0 mg/kg/injection, schedule: Q01DX005 (ip), vehicle: other 111 % of control | dose: 5.0 mg/kg/injection, schedule: Q01DX005 (ip), vehicle: saline + Tween-80 + alcohol 116 % of control | dose: 10.0 mg/kg/injection, schedule: Q01DX005 (ip), vehicle: saline + Tween-80 + alcohol 111 % of control | dose: 12.5 mg/kg/injection, schedule: Q01DX005 (ip), vehicle: saline + Tween-80 + alcohol 119 % of control | dose: 25.0 mg/kg/injection, schedule: Q01DX005 (ip), vehicle: saline + Tween-80 + alcohol 111 % of control

[O-][N+](=C1c2ccccc2-c2ccccc21)c1ccccc1
inactive: dose: 50.0 mg/kg/injection, schedule: Q04DX003 (ip), vehicle: saline 109 % of control | [1] 118 % of control | [2] 95 % of control

Cc1c(-c2ccccc2)ccnc1/C=N/NC(=S)NCCc1ccccn1
inactive: [3] 113 % of control | [4] 107 % of control and 111 % of control | [5] 115 % of control and 117 % of control | [6] 120 % of control and 122 % of control | [7] 86 % of control

CC(=O)OC(C(=O)O)C(OC(C)=O)C(OC(C)=O)C(=O)O (stereo not given)
inactive: dose: 50.0 mg/kg/injection, schedule: Q01DX009 (ip), vehicle: saline 98 % of control | dose: 100.0 mg/kg/injection, schedule: Q01DX009 (ip), vehicle: saline 101 % of control | dose: 200.0 mg/kg/injection, schedule: Q01DX009 (ip), vehicle: saline 95 % of control

Cn1c(=O)c2[nH]c(C(C)(C)O)nc2n(C)c1=O
inactive: [8] 101 % of control | [9] 104 % of control | dose: 240.0 mg/kg/injection, schedule: Q01DX005 (ip), vehicle: saline with Tween-80 101 % of control

Nc1nc(=O)n(C2CC(O)C(CO)O2)cc1Br (stereo not given)
inactive: [1] 91 % of control | [2] 100 % of control | dose: 400.0 mg/kg/injection, schedule: Q04DX003 (ip), vehicle: saline 104 % of control

COc1ccc(OC)c(NC(=O)Oc2cccc(NC(C)=O)c2)c1
inactive: [5] 105 % of control | [6] 106 % of control | [7] 104 % of control | dose: 200.0 mg/kg/injection, schedule: Q01DX009 (ip), vehicle: saline with Tween-80 107 % of control | [10] 104 % of control

O=S(=O)(O)C(F)(F)F
inactive: dose: 25.0 mg/kg/injection, schedule: Q01DX005 (ip), vehicle: water 101 % of control | dose: 50.0 mg/kg/injection, schedule: Q01DX005 (ip), vehicle: water 100 % of control | dose: 200.0 mg/kg/injection, schedule: Q01DX005 (ip), vehicle: water 100 % of control

Cc1cc(Nc2ccc(N(CCCl)CCCl)cc2)c(C)cc1O
active: [11] 159 % of control

C1CCC2(CC1)SSC1(CCCCC1)S2
inactive: dose: 100.0 mg/kg/injection, schedule: Q04DX003 (ip), vehicle: other 109 % of control | dose: 200.0 mg/kg/injection, schedule: Q04DX003 (ip), vehicle: other 109 % of control | dose: 400.0 mg/kg/injection, schedule: Q04DX003 (ip), vehicle: other 113 % of control

CC(CN1CCCCC1)NC(=O)c1scnc1-c1ccccc1 (stereo not given)
inactive: [8] 116 % of control | [9] 98 % of control

COc1cc(NCCCCCNC(C)C(C)C)c2ncccc2c1 (stereo not given)
inactive: dose: 12.5 mg/kg/injection, schedule: Q01DX005 (ip), vehicle: saline with Tween-80 93 % of control | dose: 25.0 mg/kg/injection, schedule: Q01DX005 (ip), vehicle: saline with Tween-80 95 % of control | [12] 100 % of control and 96 % of control

CCOc1ccc2nc3cc(N=Nc4ccc5c(N)c6cc(OCC)ccc6nc5c4)ccc3c(N)c2c1
inactive: [5] 98 % of control | [6] 108 % of control | [7] 120 % of control | [10] 120 % of control

O=[N+]([O-])c1cccc(N=Cc2ccc(N(CCCl)CCCl)cc2)c1
inactive: dose: 50.0 mg/kg/injection, schedule: Q04DX003 (ip), vehicle: Klucel (hydroxypropylcellulose) (HPC) 106 % of control | dose: 100.0 mg/kg/injection, schedule: Q04DX003 (ip), vehicle: Klucel (hydroxypropylcellulose) (HPC) 104 % of control | [11] 100 % of control

CCOC(=O)Nc1ccc(C2OCCS2)cc1 (stereo not given)
inactive: [12] 86 % of control | dose: 200.0 mg/kg/injection, schedule: Q01DX005 (ip), vehicle: saline with Tween-80 90 % of control

CSC(=S)N/N=C/c1ccccc1O
inactive: [3] 90 % of control | [4] 90 % of control | [5] 95 % of control

NC(=O)CNCC1Cc2ccccc21 (stereo not given)
inactive: dose: 60.0 mg/kg/injection, schedule: Q01DX005 (ip), vehicle: saline 102 % of control | dose: 120.0 mg/kg/injection, schedule: Q01DX005 (ip), vehicle: saline 98 % of control

C=C(C)C12CC(C)C34OC(CCCCCCCCCCC)(OC1C3C1OC1(CO)C(O)C1(O)C(=O)C(C)=CC14C)O2 (stereo not given)
inactive: dose: 0.05 mg/kg/injection, schedule: Q01DX009 (ip), vehicle: distilled water + Tween-80 99 % of control and 100 % of control | dose: 0.06 mg/kg/injection, schedule: Q01DX009 (ip), vehicle: other 100 % of control | dose: 0.1 mg/kg/injection, schedule: Q01DX009 (ip), vehicle: distilled water + Tween-80 100 % of control and 96 % of control | dose: 0.12 mg/kg/injection, schedule: Q01DX009 (ip), vehicle: other 104 % of control | dose: 0.2 mg/kg/injection, schedule: Q01DX009 (ip), vehicle: distilled water + Tween-80 103 % of control and 96 % of control | dose: 0.4 mg/kg/injection, schedule: Q01DX009 (ip), vehicle: distilled water + Tween-80 105 % of control and 119 % of control | dose: 25.0 micrograms/kg/injection, schedule: Q01DX009 (ip), vehicle: other 112 % of control | dose: 50.0 micrograms/kg/injection, schedule: Q01DX009 (ip), vehicle: other 112 % of control

CC(=O)[O][Pb]([O]C(C)=O)([c]1ccccc1)[c]1ccccc1
inactive: dose: 6.25 mg/kg/injection, schedule: Q01DX009 (ip), vehicle: Klucel (hydroxypropylcellulose) (HPC) 121 % of control | dose: 12.5 mg/kg/injection, schedule: Q01DX009 (ip), vehicle: Klucel (hydroxypropylcellulose) (HPC) 124 % of control | dose: 17.8 mg/kg/injection, schedule: Q01DX009 (ip), vehicle: saline with Tween-80 114 % of control | dose: 25.0 mg/kg/injection, schedule: Q01DX009 (ip), vehicle: Klucel (hydroxypropylcellulose) (HPC) 119 % of control | dose: 30.0 mg/kg/injection, schedule: Q01DX009 (ip), vehicle: Klucel (hydroxypropylcellulose) (HPC) 104 % of control | dose: 40.0 mg/kg/injection, schedule: Q01DX009 (ip), vehicle: saline with Tween-80 123 % of control | dose: 45.0 mg/kg/injection, schedule: Q01DX009 (ip), vehicle: Klucel (hydroxypropylcellulose) (HPC) 112 % of control | dose: 50.0 mg/kg/injection, schedule: Q01DX009 (ip), vehicle: Klucel (hydroxypropylcellulose) (HPC) 120 % of control | dose: 65.0 mg/kg/injection, schedule: Q01DX009 (ip), vehicle: Klucel (hydroxypropylcellulose) (HPC) 107 % of control | dose: 100.0 mg/kg/injection, schedule: Q01DX009 (ip), vehicle: Klucel (hydroxypropylcellulose) (HPC) 123 % of control
active: dose: 150.0 mg/kg/injection, schedule: Q01DX009 (ip), vehicle: Klucel (hydroxypropylcellulose) (HPC) 150 % of control

Cc1cccc(N2CCN(S(C)(=O)=O)CC2)c1
inactive: dose: 100.0 mg/kg/injection, schedule: Q04DX003 (ip), vehicle: saline with Tween-80 101 % of control | dose: 200.0 mg/kg/injection, schedule: Q04DX003 (ip), vehicle: saline with Tween-80 102 % of control | dose: 400.0 mg/kg/injection, schedule: Q04DX003 (ip), vehicle: saline with Tween-80 110 % of control

CC(C)(C)N=O
inactive: [5] 104 % of control | [6] 103 % of control | dose: 100.0 mg/kg/injection, schedule: Q01DX001 (ip), vehicle: saline with Tween-80 100 % of control and 106 % of control | [7] 111 % of control | dose: 200.0 mg/kg/injection, schedule: Q01DX001 (ip), vehicle: saline with Tween-80 100 % of control and 106 % of control and 109 % of control | dose: 400.0 mg/kg/injection, schedule: Q01DX001 (ip), vehicle: saline with Tween-80 105 % of control and 119 % of control | dose: 800.0 mg/kg/injection, schedule: Q01DX001 (ip), vehicle: saline with Tween-80 89 % of control

CC(C)=CCC(OC(=O)C=C(C)C)c1cc(O)c2c(O)ccc(O)c2c1O.[Ni] (stereo not given)
inactive: dose: 100.0 mg/kg/injection, schedule: Q04DX002 (ip), vehicle: saline with Tween-80 111 % of control | dose: 200.0 mg/kg/injection, schedule: Q04DX002 (ip), vehicle: saline with Tween-80 105 % of control | dose: 400.0 mg/kg/injection, schedule: Q04DX002 (ip), vehicle: saline with Tween-80 114 % of control
